Reference: the NIST ThermoML archive (doi:10.1016/j.fluid.2014.10.016)

Legend:
[1] = excess molar enthalpy (molar enthalpy of mixing); xn = mol fraction of the nth substance listed; conditions: 101 kPa, Liquid, Flow calorimetry
[2] = 313.15 K; Liquid; Closed cell (Static) method

CCCCCCC [heptane] + CCCC(C)O
[1], x2 = 0
Conditions	excess molar enthalpy [kcal/mol]
298.15 K	0
313.15 K	0

CCCC(C)O (configuration not stated) [pentan-2-ol] + CCCCCCC
excess molar enthalpy [kcal/mol], [1]
Conditions	298.15 K	313.15 K
x1 = 0.0504	–	0.146
x1 = 0.0505	0.117	–
x1 = 0.0996	–	0.197
x1 = 0.0997	0.151	–
x1 = 0.1475	–	0.223
x1 = 0.1477	0.173	–
x1 = 0.1967	–	0.242
x1 = 0.1969	0.19	–
x1 = 0.2469	–	0.256
x1 = 0.2472	0.203	–
x1 = 0.2956	–	0.265
x1 = 0.2962	0.211	–
x1 = 0.3455	–	0.27
x1 = 0.346	0.219	–
x1 = 0.3962	–	0.273
x1 = 0.3967	0.225	–
x1 = 0.4454	–	0.273
x1 = 0.4459	0.227	–
x1 = 0.4953	–	0.27
x1 = 0.4958	0.226	–
x1 = 0.5458	–	0.263
x1 = 0.5463	0.221	–
x1 = 0.5968	–	0.251
x1 = 0.5972	0.212	–
x1 = 0.6462	–	0.237
x1 = 0.6466	0.2	–
x1 = 0.6959	–	0.214
x1 = 0.6963	0.181	–
x1 = 0.7477	–	0.19
x1 = 0.748	0.159	–
x1 = 0.7979	–	0.161
x1 = 0.7981	0.132	–
x1 = 0.8481	–	0.127
x1 = 0.8483	0.103	–
x1 = 0.8984	–	0.088
x1 = 0.8985	0.0706	–
x1 = 0.9485	–	0.0461
x1 = 0.9486	0.0359	–
x1 = 1	0	0

CCCCCCC [heptane]
Conditions	vapor or sublimation pressure [kPa]
[2]	12.31

CCCC(C)O (configuration not stated) [pentan-2-ol] + CC(C)CC(C)(C)C
excess molar enthalpy [kcal/mol], [1]
Conditions	298.15 K	313.15 K
x1 = 0.0507	0.114	0.146
x1 = 0.0997	0.154	–
x1 = 0.0998	–	0.196
x1 = 0.1498	0.173	–
x1 = 0.1499	–	0.224
x1 = 0.2009	0.19	0.243
x1 = 0.2499	–	0.258
x1 = 0.25	0.202	–
x1 = 0.3022	0.213	–
x1 = 0.3023	–	0.268
x1 = 0.3502	–	0.271
x1 = 0.3503	0.22	–
x1 = 0.401	–	0.273
x1 = 0.4011	0.227	–
x1 = 0.452	–	0.272
x1 = 0.4521	0.229	–
x1 = 0.501	–	0.267
x1 = 0.5011	0.229	–
x1 = 0.552	–	0.26
x1 = 0.5521	0.22	–
x1 = 0.601	0.21	0.248
x1 = 0.6516	–	0.231
x1 = 0.6517	0.196	–
x1 = 0.7018	–	0.211
x1 = 0.7019	0.177	–
x1 = 0.7516	–	0.185
x1 = 0.7517	0.155	–
x1 = 0.8008	–	0.158
x1 = 0.8009	0.128	–
x1 = 0.851	0.0997	0.122
x1 = 0.9002	0.0677	0.0855
x1 = 0.95	0.0338	0.0441
x1 = 1	0	0

CCCC(C)O (configuration not stated) [pentan-2-ol]
Conditions	vapor or sublimation pressure [kPa]
[2]	2.295

CC(C)CC(C)(C)C [2,2,4-trimethylpentane] + CCCC(C)O
[1], x2 = 0
Conditions	excess molar enthalpy [kcal/mol]
298.15 K	0
313.15 K	0

CC(C)CC(C)(C)C [2,2,4-trimethylpentane]
Conditions	vapor or sublimation pressure [kPa]
[2]	12.97
